Activity calls are given as the source filed them.
Legend:
[1] = biological target: T1, Nuclear receptor subfamily 0 group B member 1 (Homo sapiens, UniProt P51843); experiment: Luminescence-based cell-based high throughput dose response assay for inhibitors of the orphan nuclear receptor subfamily 0, group B, member 1 (DAX1; NR0B1). [Related pubchem assays (depositor defined):AID504766, AID504790]; assay type: functional
T1 sequence (P51843 whole entry): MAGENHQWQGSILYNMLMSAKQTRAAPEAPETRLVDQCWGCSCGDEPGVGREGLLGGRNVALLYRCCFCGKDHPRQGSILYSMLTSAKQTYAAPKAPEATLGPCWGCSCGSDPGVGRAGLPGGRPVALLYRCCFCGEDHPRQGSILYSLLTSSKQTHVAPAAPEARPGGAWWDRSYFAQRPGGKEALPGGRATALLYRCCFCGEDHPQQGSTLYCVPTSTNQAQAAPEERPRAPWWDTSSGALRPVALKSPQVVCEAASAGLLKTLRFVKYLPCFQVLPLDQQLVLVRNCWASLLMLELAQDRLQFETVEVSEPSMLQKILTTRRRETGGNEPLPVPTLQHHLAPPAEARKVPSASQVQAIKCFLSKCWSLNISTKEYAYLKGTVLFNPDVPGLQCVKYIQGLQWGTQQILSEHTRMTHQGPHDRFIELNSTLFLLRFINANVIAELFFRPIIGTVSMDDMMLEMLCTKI

HEK293 = experiment: cells; assay type: functional, cell-based; conditions: Homo sapiens
Vero = experiment: cells; assay type: functional; conditions: Chlorocebus sabaeus
[2] = biological target: T2, Short transient receptor potential channel 4 (Mus musculus, UniProt Q9QUQ5); experiment: mouse TRPC4 channel activators, dose response, cell-based, HEK293 TRPC4/mu-opioid, Fluo-4 calcium (AID 434937); assay type: functional
T2 sequence (Q9QUQ5 whole entry): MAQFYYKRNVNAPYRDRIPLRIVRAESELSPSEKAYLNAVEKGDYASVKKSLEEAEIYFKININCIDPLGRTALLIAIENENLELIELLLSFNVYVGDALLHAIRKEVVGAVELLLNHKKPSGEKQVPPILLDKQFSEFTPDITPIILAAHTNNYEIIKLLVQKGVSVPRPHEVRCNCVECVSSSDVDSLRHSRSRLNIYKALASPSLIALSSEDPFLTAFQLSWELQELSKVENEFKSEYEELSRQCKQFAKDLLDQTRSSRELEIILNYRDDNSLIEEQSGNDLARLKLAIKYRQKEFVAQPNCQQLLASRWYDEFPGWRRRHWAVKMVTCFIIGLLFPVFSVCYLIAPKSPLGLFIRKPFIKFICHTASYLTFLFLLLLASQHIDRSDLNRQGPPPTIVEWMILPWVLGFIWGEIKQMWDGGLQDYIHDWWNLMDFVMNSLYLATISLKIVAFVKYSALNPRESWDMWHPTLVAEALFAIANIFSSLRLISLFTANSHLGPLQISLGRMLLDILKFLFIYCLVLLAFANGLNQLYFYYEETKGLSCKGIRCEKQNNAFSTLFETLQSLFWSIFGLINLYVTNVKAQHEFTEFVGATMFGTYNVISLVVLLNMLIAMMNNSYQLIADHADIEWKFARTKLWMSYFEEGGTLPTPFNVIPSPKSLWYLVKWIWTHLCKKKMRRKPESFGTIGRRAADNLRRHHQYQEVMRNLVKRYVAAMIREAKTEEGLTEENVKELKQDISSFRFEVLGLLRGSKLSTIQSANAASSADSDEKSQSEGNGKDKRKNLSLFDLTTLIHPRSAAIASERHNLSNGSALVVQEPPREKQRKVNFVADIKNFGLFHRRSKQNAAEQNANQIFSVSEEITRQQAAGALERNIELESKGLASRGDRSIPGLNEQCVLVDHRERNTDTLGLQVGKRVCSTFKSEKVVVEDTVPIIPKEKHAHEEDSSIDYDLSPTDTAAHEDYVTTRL

BJ [3] = experiment: cytotoxicity toward BJ-TERT-LT-ST fibroblasts, dose response, cell-based, RAS-independent, luminescence (AID 1935); assay type: functional; conditions: Homo sapiens;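 further: BJ fibroblasts immortalized with TERT plus LT and ST oncogenes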
[4] = cytotoxicity toward DRD oncogenic fibroblasts, dose response, cell-based, non-viral oncogenic, luminescence (AID 1934); assay type: functional; conditions: Homo sapiens
BJ [5] = experiment: cytotoxicity toward BJ-TERT fibroblasts, dose response, cell-based, RAS-independent, luminescence (AID 1933); assay type: functional; conditions: Homo sapiens
BJ [6] = experiment: cells; assay type: functional, cell-based; conditions: Homo sapiens
[7] = biological target: T3, Microphthalmia-associated transcription factor (Homo sapiens, UniProt O75030); experiment: TRPM1 promoter luciferase signal decrease, dose response, MITF inhibitor project, cell-based, SK-MEL-5, cherry-picked, set 3 (AID 493073); assay type: functional
T3 sequence (O75030 whole entry): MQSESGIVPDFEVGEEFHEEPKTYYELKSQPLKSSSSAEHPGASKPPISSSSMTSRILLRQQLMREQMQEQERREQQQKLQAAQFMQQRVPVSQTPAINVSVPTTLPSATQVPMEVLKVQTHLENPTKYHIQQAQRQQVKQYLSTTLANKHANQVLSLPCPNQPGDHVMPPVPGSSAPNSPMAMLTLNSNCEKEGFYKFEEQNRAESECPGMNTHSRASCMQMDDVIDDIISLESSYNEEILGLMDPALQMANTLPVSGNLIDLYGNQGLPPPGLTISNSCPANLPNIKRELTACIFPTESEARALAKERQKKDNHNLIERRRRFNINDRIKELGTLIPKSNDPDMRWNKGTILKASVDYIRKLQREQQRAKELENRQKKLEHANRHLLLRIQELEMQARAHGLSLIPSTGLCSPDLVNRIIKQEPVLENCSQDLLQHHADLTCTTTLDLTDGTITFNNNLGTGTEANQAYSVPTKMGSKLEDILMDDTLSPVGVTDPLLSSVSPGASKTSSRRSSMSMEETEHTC

[8] = Fluorescence-based cell-based high throughput dose response assay for inhibitors of the interaction of nucleotide-binding oligomerization domain containing 2 (NOD2) and the receptor-interacting serine-threonine kinase 2 (RIPK2).; assay type: functional; conditions: Homo sapiens
[9] = biological target: T4, DNA repair and recombination protein RAD54-like (Homo sapiens, UniProt Q92698); experiment: inhibitors of human RAD54 branch migration, confirmation, biochemical, fluorescence, cherry-picked samples, dose series (AID 651657); assay type: functional
T4 sequence (Q92698 whole entry): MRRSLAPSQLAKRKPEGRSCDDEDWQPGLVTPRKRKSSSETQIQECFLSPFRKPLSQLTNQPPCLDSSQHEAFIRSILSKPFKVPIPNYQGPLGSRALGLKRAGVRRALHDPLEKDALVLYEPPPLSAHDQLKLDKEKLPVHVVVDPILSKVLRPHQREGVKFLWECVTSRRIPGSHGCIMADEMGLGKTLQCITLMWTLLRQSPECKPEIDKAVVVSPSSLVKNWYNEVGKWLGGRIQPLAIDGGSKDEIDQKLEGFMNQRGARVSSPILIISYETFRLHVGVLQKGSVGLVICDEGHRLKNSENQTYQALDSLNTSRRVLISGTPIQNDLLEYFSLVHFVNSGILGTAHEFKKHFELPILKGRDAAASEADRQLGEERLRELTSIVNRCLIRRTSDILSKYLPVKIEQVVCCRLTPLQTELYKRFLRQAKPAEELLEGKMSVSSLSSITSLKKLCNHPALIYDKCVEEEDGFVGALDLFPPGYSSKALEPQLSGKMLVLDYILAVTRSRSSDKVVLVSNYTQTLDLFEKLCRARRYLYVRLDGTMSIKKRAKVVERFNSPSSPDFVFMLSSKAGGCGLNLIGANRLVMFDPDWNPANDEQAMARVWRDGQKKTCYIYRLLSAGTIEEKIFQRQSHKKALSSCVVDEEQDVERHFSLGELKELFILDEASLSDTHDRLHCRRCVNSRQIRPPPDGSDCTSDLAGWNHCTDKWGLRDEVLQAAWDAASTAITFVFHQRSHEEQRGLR

[10] = biological target: T5, Small ubiquitin-related modifier 1 (Homo sapiens, UniProt P63165); experiment: inhibitors of SUMO1 peptide binding, dose response, biochemical, fluorescence polarization, uHTS hits (AID 624382); assay type: functional; conditions: read-out: IC50_Mean
T5 sequence (P63165 whole entry): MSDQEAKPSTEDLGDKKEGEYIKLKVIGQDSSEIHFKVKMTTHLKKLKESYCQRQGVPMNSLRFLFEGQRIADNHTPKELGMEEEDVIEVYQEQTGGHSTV

[11] = biological target: T6, Calpain-2 catalytic subunit (Sus scrofa, UniProt P43367); experiment: pig calpain II inhibitor potency, dose response, biochemical, fluorogenic peptide substrate (AID 1420); assay type: functional
T6 sequence (P43367 whole entry): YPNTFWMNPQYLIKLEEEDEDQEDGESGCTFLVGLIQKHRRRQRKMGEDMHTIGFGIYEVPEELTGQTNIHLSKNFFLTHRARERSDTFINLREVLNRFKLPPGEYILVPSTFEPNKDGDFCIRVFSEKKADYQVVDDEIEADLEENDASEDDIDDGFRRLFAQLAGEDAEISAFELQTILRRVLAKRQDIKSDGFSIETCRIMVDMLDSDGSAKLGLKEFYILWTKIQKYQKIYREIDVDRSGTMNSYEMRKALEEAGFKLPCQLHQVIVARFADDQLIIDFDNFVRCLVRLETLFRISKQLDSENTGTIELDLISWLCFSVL

[12] = biological target: T5, Small ubiquitin-related modifier 1; experiment: inhibitors of SUMO1 partner interactions, dose response, biochemical, FRET (AID 624383); assay type: functional; conditions: read-out: IC50_Mean
[13] = biological target: T7, Endoribonuclease toxin MazF (Escherichia coli K-12, UniProt P0AE70); experiment: MazF toxin RNase activators, dose response, biochemical, fluorescence, single-stranded RNA substrate, uHTS hits (AID 588481); assay type: functional
T7 sequence (P0AE70 whole entry): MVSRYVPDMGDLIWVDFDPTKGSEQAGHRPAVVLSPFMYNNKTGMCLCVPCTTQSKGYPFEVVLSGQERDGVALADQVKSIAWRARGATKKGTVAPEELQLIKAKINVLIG

[14] = biological target: T7, Endoribonuclease toxin MazF; experiment: fluorescent RNA oligo signal without MazF, dose response, counter-screen for MazEF activator project, biochemical, fluorescence, single-stranded RNase substrate (AID 588502); assay type: functional
[15] = biological target: T8, Zinc finger protein mex-5 (Caenorhabditis elegans, UniProt Q9XUB2); experiment: MEX-5/TCR-2 RNA interaction inhibitors, dose response, biochemical, C. elegans, fluorescence polarization (AID 1960)
T8 sequence (Q9XUB2 whole entry): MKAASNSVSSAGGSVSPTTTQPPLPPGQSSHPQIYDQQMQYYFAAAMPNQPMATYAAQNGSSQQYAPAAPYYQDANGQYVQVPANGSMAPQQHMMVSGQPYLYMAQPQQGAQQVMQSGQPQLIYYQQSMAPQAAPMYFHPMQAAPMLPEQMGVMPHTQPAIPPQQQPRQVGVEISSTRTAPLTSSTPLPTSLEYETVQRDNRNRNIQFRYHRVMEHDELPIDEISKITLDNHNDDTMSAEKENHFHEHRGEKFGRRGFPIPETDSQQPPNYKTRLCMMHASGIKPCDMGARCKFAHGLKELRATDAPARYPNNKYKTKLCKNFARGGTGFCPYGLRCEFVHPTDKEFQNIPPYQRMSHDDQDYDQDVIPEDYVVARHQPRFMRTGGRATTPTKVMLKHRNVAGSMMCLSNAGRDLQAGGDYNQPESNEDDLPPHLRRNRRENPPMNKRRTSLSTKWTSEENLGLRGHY

[16] = biological target: T9, RNA-binding protein pos-1 (Caenorhabditis elegans, UniProt G5EF15); experiment: inhibitors of POS-1/mex-3 RNA binding, dose response, biochemical, fluorescence polarization (AID 1964);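 further: purified POS-1 fused to maltose binding protein made in E. coli; potency of compounds blocking POS-1 binding to fluorescent RNA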
T9 sequence (G5EF15 whole entry): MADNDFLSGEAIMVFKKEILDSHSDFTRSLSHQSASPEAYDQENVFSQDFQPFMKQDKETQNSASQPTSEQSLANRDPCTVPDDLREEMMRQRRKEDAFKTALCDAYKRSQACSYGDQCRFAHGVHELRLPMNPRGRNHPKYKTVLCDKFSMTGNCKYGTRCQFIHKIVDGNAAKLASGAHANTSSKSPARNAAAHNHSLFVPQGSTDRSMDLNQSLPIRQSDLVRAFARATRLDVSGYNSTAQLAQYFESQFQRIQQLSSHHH

## COCCN(C(S)=Nc1cccc(C)c1C)C(C)c1ccco1 (stereo not drawn)
[1]
  IC50: > 67.6 µM (inactive)
HEK293
  IC50: > 67.6 µM (inactive)

## COc1ccc(-c2cc3nc4n(c(=O)c3s2)CCCCC4)cc1
[1]
  IC50: > 67.5 µM (inactive)
HEK293
  IC50: > 67.5 µM (inactive)

## COc1ccc(/C=C2/CSC/C(=C/c3ccc(OC)c(OC)c3)C2=O)cc1OC
Vero
  CC50: 8.1 µM (active)

## CCOc1cnc(C(=O)NNC(=O)C(Br)C(C)C)o1 (stereo not drawn)
[1]
  IC50: > 67.5 µM (inactive)
HEK293
  IC50: > 67.5 µM (inactive)

## COc1ccc(-c2[nH]ncc2CN2CCN(Cc3cccs3)CC2)cc1F
[1]
  IC50: > 67.5 µM (inactive)
HEK293
  IC50: > 67.5 µM (inactive)

## COc1ccc(C(CNC(=O)c2cccc(S(=O)(=O)NCc3ccccc3)c2)N(C)C)cc1 (stereo not drawn)
[2]
  EC50: 0.421 µM (active)

## CNC(=O)COC(=O)c1ccccc1C(=O)c1ccc(Cl)c([N+](=O)[O-])c1
BJ [3]
  EC50: 2.42 µM (inconclusive)
[4]
  EC50: 10 µM (inconclusive)
BJ [5]
  EC50: 4.68 µM (active)
BJ [6]
  EC50: 5.44 µM (inconclusive)
[7]
  AC50: 9.77 µM (active)
[8]
  IC50: 2.58 µM (active)

## O=[N+]([O-])c1ccc(N2CCCNCC2)c2ncccc12
[2]
  EC50: 0.008 µM (active)

## O=C(Nc1ccc(Nc2ccncc2)cc1)c1ccc(Nc2ccnc3ccc([N+](=O)[O-])cc23)cc1
[9]
  AC50: 100 µM (inactive)
[10]
  IC50: > 66.6 µM (inactive)
[11]
  IC50: 3.36 µM (not active)
[12]
  IC50: 0.326 µM (active)

## CCN1C(=O)/C(=C2\C=Cc3ccccc3N2CC)OC1=S
[13]
  EC50: > 99 µM (inactive)
[14]
  EC50: > 99 µM (inactive)

## COc1ccccc1C(=O)NCc1nnc(SCC(=O)Nc2nccs2)n1C
[1]
  IC50: > 67.6 µM (inactive)
HEK293
  IC50: > 67.6 µM (inactive)

## Cc1csc2c(N3CCN(C(=O)NC(C)(C)C)CC3)ncnc12
[2]
  EC50: 5.31 µM (active)

## COc1ccc(CN2CCC(n3nccc3NC(=O)CCc3ccccc3)CC2)c(C)c1C
[2]
  EC50: 2.11 µM (active)

## CCOc1ccccc1NC(=O)Cn1cnc2c(cnn2-c2ccc(C)c(C)c2)c1=O
[13]
  EC50: > 99 µM (inactive)
[14]
  EC50: > 99 µM (inactive)

## COc1ccc(/C=C2\CCCC(C(=O)C(F)(F)F)=C2O)cc1
[15]
  EC50: 41.4 µM (active)
[13]
  EC50: > 99 µM (inactive)
[14]
  EC50: 33.8 µM (inactive)
[16]
  EC50: 36 µM (inconclusive)

Source: ChEMBL document CHEMBL1201862, “PubChem BioAssay data set” (2004)
